Assay results published in US12220410B2, “Antitumor composition” (priority 2019, dated 2025).
Read-outs that look alike come from different tables or passages of the source.

How the values were obtained:
[1] = system: human follicular lymphoma cell line DOHH-2; experiment: In vitro cell growth inhibition test (CellTiter-Fluor), DOHH-2; type: cell-based; details: for IC50: Homo sapiens, DOHH-2, 120 h; for FIC (fractional inhibitory concentration): DOHH-2
[2] = system: human diffuse large B-cell lymphoma (DLBCL) cell line OCI-Ly7; experiment: In vitro cell growth inhibition test, OCI-Ly7 (cell viability, combination index); type: cell-based; details: compound A 0 nM, OCI-Ly7
[3] = system: human diffuse large B-cell lymphoma cell line OCI-Ly7; type: in vivo
[4] = system: human diffuse large B-cell lymphoma cell line OCI-Ly7; type: in vivo; remark: listed apart in the source
[5] = system: human acute myelogenous leukemia (AML) cell line KG-1; type: in vivo
[6] = system: human acute myelogenous leukemia (AML) cell line KG-1; type: in vivo; remark: listed apart in the source
[7] = system: human breast cancer cell line MDA-MB-453; experiment: In vivo antitumor effect test, MDA-MB-453 tumor, compound A and lapatinib (Example 37); design: species or system NOD-SCID mice
Description: The tumor volume was calculated from tumor diameters by the following formula: (Long diameter×[Short diameter]^2×0.5). Using the calculated tumor volume value, the relative tumor volume (ratio of the tumor volume on the day of measurement to the baseline tumor volume on Day 1) was calculated. […] Further, the tumor growth delay rate (% TGD) was calculated according to the following formula: % TGD={(T−C)/C}×100, Where: • T: […] relative tumor volume of the control group to reach 1600% 6) Statistical Analysis
Compound A was suspended in a 1% hypromellose solution to prepare 20 mg/mL test substance suspensions (a suspension for preparing a single administration solution and a suspension for preparing a 100 mg/kg combined administration solution). The 20 mg/mL test substance suspensions were diluted with a 1% hypromellose solution to prepare 10 mg/mL (100 mg/kg administration solution), 6 mg/mL (suspension for preparing a 30 mg/kg combined administration solution), and 3 mg/mL (30 mg/kg administration solution) test substance suspensions. Lapatinib was suspended in a 1% hypromellose solution to prepare a 20 mg/mL suspension for preparing a 100 mg/kg lapatinib combined administration solution. The 20 mg/mL suspension was diluted with a 1% hypromellose solution to prepare a 10 mg/mL suspension for 100 mg/kg single administration. The administration solution of the combination group was prepared by mixing the 6 mg/mL compound A suspension and the 20 mg/mL lapatinib suspension at 1:1, or mixing the 20 mg/mL compound A suspension and the 20 mg/mL lapatinib suspension at 1:1.
MDA-MB-453 was obtained from ATCC. […] The collected cells were suspended in serum-free RPMI 1640 medium at 1.0×10^8 cells/mL.
5-week-old female NOD-SCID mice (NOD.CB17-Prkdcscid/J, produced by Charles River Japan Co., Ltd.) were used. The female NOD-SCID mice were bred in the same manner as in Example 36. The cell suspension was inoculated at 2×10^7 cells/body into the subcutaneous space of the right axillary region of the 6-week-old NOD-SCID mice, and the mice were grouped in the same manner as in Example 36 using the tumor volume as an index.
The administration was started on the next day of the grouping (Day 2), and compound A and lapatinib were orally administered once a day for 28 consecutive days. Each group (N=8) was treated as follows. • (1) Control (solvent control) group: 1% hypromellose solution • (2) Compound A (30 mg/kg) treated group: 30 mg/kg of compound A (oral administration once a day for 28 consecutive days) • (3) Compound A (100 mg/kg) treated group: 100 mg/kg of compound A (oral administration once a day for 28 consecutive days) • (4) Lapatinib (100 mg/kg) treated group: 100 mg/kg of lapatinib (oral administration once a day for 28 consecutive days) • (5) Combination group 1: 30 mg/kg of compound A (oral administration once a day for 28 consecutive days)+100 mg/kg of lapatinib (oral administration once a day for 28 consecutive days) • (6) Combination group 2: 100 mg/kg of compound A (oral administration once a day for 28 consecutive days)+100 mg/kg of lapatinib (oral administration once a day for 28 consecutive days)

[8] = system: human diffuse large B-cell lymphoma cell line OCI-Ly7; type: in vivo; remark: listed apart in the source
[9] = bendamustine 15 mg/kg intraperitoneally on Days 2, 3, 4, 5, 6, relative tumor volume 1600%
[10] = cyclophosphamide 50 mg/kg intraperitoneally on Days 2, 5, 9, 12, relative tumor volume 1600%
[11] = lapatinib 100 mg/kg orally once a day for 28 days, relative tumor volume 200%
[12] = rituximab 10 mg/kg intraperitoneally on Days 2, 9, 16, relative tumor volume 600%

Compound: Cn1c(CCCC(=O)O)nc2cc(N(CCCl)CCCl)ccc21 [Bendamustine]
- IC50 ([1]; read-out: IC50 value of bendamustine in each concentration of compound A, compound A 0 nM (bendamustine alone), DOHH-2, 1000 cells/well, 120 hours): 9870 nM
- IC50 ([1]; read-out: IC50 value of bendamustine in each concentration of compound A, compound A 39.1 nM, DOHH-2, 120 hours): 5590 nM
- IC50 ([1]; read-out: IC50 value of bendamustine in each concentration of compound A, compound A 78.1 nM, DOHH-2, 120 hours): 2960 nM
- IC50 ([1]; read-out: IC50 value of bendamustine in each concentration of compound A, compound A 156.3 nM, DOHH-2, 120 hours): 1500 nM
- IC50 ([1]; read-out: IC50 value of bendamustine in each concentration of compound A, compound A 312.5 nM, DOHH-2, 120 hours): 40.5 nM
- FIC (fractional inhibitory concentration) ([1]; bendamustine fixed at 0 nM, compound A at its IC50): 0
- FIC (fractional inhibitory concentration) ([1]; bendamustine fixed at 1250 nM, compound A at its IC50): 0.127
- FIC (fractional inhibitory concentration) ([1]; bendamustine fixed at 2500 nM, compound A at its IC50): 0.253
- FIC (fractional inhibitory concentration) ([1]; bendamustine fixed at 5000 nM, compound A at its IC50): 0.506
- FIC (fractional inhibitory concentration) ([1]; compound A fixed at 0 nM, bendamustine at its IC50): 1
- FIC (fractional inhibitory concentration) ([1]; compound A fixed at 39.1 nM, bendamustine at its IC50): 0.566
- FIC (fractional inhibitory concentration) ([1]; compound A fixed at 78.1 nM, bendamustine at its IC50): 0.300
- FIC (fractional inhibitory concentration) ([1]; compound A fixed at 156.3 nM, bendamustine at its IC50): 0.152
- FIC (fractional inhibitory concentration) ([1]; compound A fixed at 312.5 nM, bendamustine at its IC50): 0.004
- Cell viability (ratio relative to the drug-free control) ([2]; bendamustine 1.25 nM): 0.93
- Cell viability (ratio relative to the drug-free control) ([2]; bendamustine 2.5 nM): 0.87
- Cell viability (ratio relative to the drug-free control) ([2]; bendamustine 5 nM): 0.66
- Cell viability (ratio relative to the drug-free control) ([2]; bendamustine 10 nM): 0.29
- effectiveness of monotherapy (tumor growth delay) ([3]; 30 mg/kg of compound A, 15 mg/kg of bendamustine): effective
- Median Time (time for relative tumor volume to reach 1600%) ([3]; bendamustine 15 mg/kg intraperitoneally on Days 2, 3, 4, 5, 6): 24.3 days
- Tumor growth delay [3, 9]: 8.8 days
- Tumor growth delay rate [3, 9]: 56.5%

Compound: O=P1(N(CCCl)CCCl)NCCCO1 (centres unmarked) [Cyclophosphamide, reference compound]
- effectiveness of monotherapy (tumor growth delay) ([4]; 30 or 100 mg/kg of compound A, 50 mg/kg of cyclophosphamide): effective
- Median Time (time for relative tumor volume to reach 1600%) ([4]; cyclophosphamide 50 mg/kg intraperitoneally on Days 2, 5, 9, 12): 23.4 days
- Tumor growth delay [4, 10]: 10.7 days
- Tumor growth delay rate [4, 10]: 83.9%

Compound: Nc1ccn([C@@H]2O[C@H](CO)[C@@H](O)[C@@H]2O)c(=O)n1 [Cytarabine, reference compound]
- antitumor effect on KG-1 tumor (monotherapy) ([5]; compound A 30 mg/kg, cytarabine 50 mg/kg): antitumor effect
- T/C (ratio of relative tumor volume of treated group to control group) ([5]; cytarabine monotherapy 50 mg/kg intraperitoneally, 5-day administration and 2-day cessation, Day 16): 62.3%

Compound: Nc1ncn([C@H]2C[C@H](O)[C@@H](CO)O2)c(=O)n1 [Decitabine, 5-aza-2′-deoxycytidine, reference compound]
- antitumor effect on KG-1 tumor (monotherapy) ([6]; compound A 30 mg/kg, decitabine 1 mg/kg): antitumor effect
- T/C (ratio of relative tumor volume of treated group to control group) ([6]; decitabine monotherapy 1 mg/kg intraperitoneally, twice a week, Day 23): 27.7%

Compound: CS(=O)(=O)CCNCc1ccc(-c2ccc3ncnc(Nc4ccc(OCc5cccc(F)c5)c(Cl)c4)c3c2)o1 [Lapatinib, reference compound]
- effectiveness of monotherapy (tumor growth delay) ([7]; 30 or 100 mg/kg of compound A, 100 mg/kg of lapatinib): effective
- Median Time (time for relative tumor volume to reach 200%) ([7]; lapatinib 100 mg/kg orally once a day for 28 days): 34.2 days
- Tumor growth delay [7, 11]: 11.4 days
- Tumor growth delay rate [7, 11]: 50.0%

Compound: Rituximab: anti-CD20 antibody; Rituxan (trademark) 100 mg/10 mL, purchased from Genentech [reference compound]
- effectiveness of monotherapy (tumor growth delay) ([8]; 30 mg/kg of compound A, 10 mg/kg of rituximab): effective
- Median Time (time for relative tumor volume to reach 600%) ([8]; rituximab 10 mg/kg intraperitoneally on Days 2, 9, 16): 28.4 days
- Tumor growth delay [8, 12]: 12.1 days
- Tumor growth delay rate [8, 12]: 74.2%
